Target: T1, PARP7 (TIPARP) (Homo sapiens, UniProt Q7Z3E1)
T1 sequence (Q7Z3E1 1-657): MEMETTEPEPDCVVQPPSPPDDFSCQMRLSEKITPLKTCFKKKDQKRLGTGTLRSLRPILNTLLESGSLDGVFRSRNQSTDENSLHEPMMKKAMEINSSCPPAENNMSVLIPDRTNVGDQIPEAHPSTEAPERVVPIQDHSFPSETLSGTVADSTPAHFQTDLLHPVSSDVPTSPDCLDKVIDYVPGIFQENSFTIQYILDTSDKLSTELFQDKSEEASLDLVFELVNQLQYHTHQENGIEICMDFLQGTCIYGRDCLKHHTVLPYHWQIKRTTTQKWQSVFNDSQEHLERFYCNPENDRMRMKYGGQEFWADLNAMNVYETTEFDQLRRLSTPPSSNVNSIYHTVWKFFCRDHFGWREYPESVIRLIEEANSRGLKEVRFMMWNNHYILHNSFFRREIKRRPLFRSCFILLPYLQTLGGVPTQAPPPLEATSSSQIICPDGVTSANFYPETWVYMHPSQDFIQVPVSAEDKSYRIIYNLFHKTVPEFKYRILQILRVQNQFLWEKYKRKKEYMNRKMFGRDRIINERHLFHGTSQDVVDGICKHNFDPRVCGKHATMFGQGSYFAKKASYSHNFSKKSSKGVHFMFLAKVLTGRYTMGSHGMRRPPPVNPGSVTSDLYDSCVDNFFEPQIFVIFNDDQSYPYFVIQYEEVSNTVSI
Assay: Enzymatic assay for inhibition of PARP7: TR-FRET displacement of biotinylated Probe A from the TIPARP active site
Type: binding
Conditions: 6 nM TIPARP, 2 nM Probe A, 25° C., 30 min incubation with test compound
Protocol: Enzymatic Assay for Inhibition of PARP7
Displacement of Probe A, a biotinylated probe binding to the TIPARP active site, was measured using a time-resolved fluorescence energy transfer (TR-FRET) assay. 20 nL of a dose response curve of each test compound was spotted in black 384-well polystyrene proxiplates (Perkin Elmer) using a Mosquito (TTP Labtech). Reactions were performed in a 8 μL volume by adding 6 μL of TIPARP and Probe A in assay buffer (20 mM HEPES pH=8, 100 mM NaCl, 0.1% bovine serum albumin, 2 mM DTT and 0.002% Tween20), incubating with test compound at 25° C. for 30 min, then adding 2 μL of ULight-anti 6xHis and LANCE Eu-W1024 labeled streptavidin (Perkin Elmer). The final concentrations of TIPARP and Probe A were 6 nM and 2 nM, respectively. The final concentration of ULight-anti 6xHis and LANCE Eu-W1024 labeled streptavidin were 4 nM and 0.25 nM, respectively. Reactions were incubated at 25° C. for an additional 30 min, then read on an Envision platereader equipped with a LANCE/DELFIA top mirror (Perkin Elmer) using excitation of 320 nm and emission of 615 nm and […] with a 90 μs delay. The ratio of the 665/615 nm emission were calculated for each well to determine the amount of complex of TIPARP and Probe A in each well. Control wells containing a negative control of 0.25% DMSO vehicle or a positive control of 100 μM 5-(5-(piperidin-4-yloxy)isoindolin-2-yl)-4-(trifluoromethyl)pyridazin-3(2H)-one were used to calculate the % inhibition as described below:
where TRFempd is the TR-FRET ratio from the compound treated well, TRFmin is the TR-FRET ratio from the 5-(5-(piperidin-4-yloxy)isoindolin-2-yl)-4-(trifluoromethyl)pyridazin-3(2H)-one-treated positive control well and TRFmax is the TR-FRET ratio from the DMSO-treated negative control well.
The % inhibition values were plotted as a function of compound concentration and the following 4-parameter fit was applied to derive the IC50 values:
where top and bottom are normally allowed to float, but may be fixed at 100 or 0 respectively in a 3-parameter fit. The Hill Coefficient is normally allowed to float but may also be fixed at 1 in a 3-parameter fit. Y is the % inhibition and X is the compound concentration.

Structure (SMILES) | IC50 [nM]
C[C@@H](COC[C@@H](O)C(=O)N1CCN(c2cnc(C(F)(F)F)cn2)CC1)Nc1cn[nH]c(=O)c1C(F)(F)F [Example 2A, 5-(((S)-1-((R)-2-hydroxy-3-oxo-3-(4-(5-(trifluoromethyl)pyrazin-2-yl)piperazin-1-yl)propoxy)propan-2-yl)amino)-4-(trifluoromethyl)pyridazin-3(2H)-one] | < 100
C[C@@H](COC[C@H](O)C(=O)N1CCN(c2cnc(C(F)(F)F)cn2)CC1)Nc1cn[nH]c(=O)c1C(F)(F)F [Example 2B, 5-(((S)-1-((S)-2-hydroxy-3-oxo-3-(4-(5-(trifluoromethyl)pyrazin-2-yl)piperazin-1-yl)propoxy)propan-2-yl)amino)-4-(trifluoromethyl)pyridazin-3(2H)-one] | < 100
C[C@@H](COC[C@@H](O)C(=O)N1CCN(c2ncc(C(F)(F)F)s2)CC1)Nc1cn[nH]c(=O)c1C(F)(F)F [Example 3A, 5-((S)-1-((R)-2-hydroxy-3-oxo-3-(4-(5-(trifluoromethyl)thiazol-2-yl)piperazin-1-yl)propoxy)propan-2-ylamino)-4-(trifluoromethyl)pyridazin-3(2H)-one] | < 100
C[C@@H](COC[C@H](O)C(=O)N1CCN(c2ncc(C(F)(F)F)s2)CC1)Nc1cn[nH]c(=O)c1C(F)(F)F [Example 3B, 5-((S)-1-((S)-2-hydroxy-3-oxo-3-(4-(5-(trifluoromethyl)thiazol-2-yl)piperazin-1-yl)propoxy)propan-2-ylamino)-4-(trifluoromethyl)pyridazin-3(2H)-one] | < 100
C[C@@H](COC[C@@H](O)C(=O)N1CCN(c2ncc(C(F)F)cn2)CC1)Nc1cn[nH]c(=O)c1C(F)(F)F [Example 4A, 5-(((S)-1-((R)-3-(4-(5-(difluoromethyl)pyrimidin-2-yl)piperazin-1-yl)-2-hydroxy-3-oxopropoxy)propan-2-yl)amino)-4-(trifluoromethyl)pyridazin-3(2H)-one] | < 100
C[C@@H](COC[C@H](O)C(=O)N1CCN(c2ncc(C(F)F)cn2)CC1)Nc1cn[nH]c(=O)c1C(F)(F)F [Example 4B, 5-(((S)-1-((S)-3-(4-(5-(difluoromethyl)pyrimidin-2-yl)piperazin-1-yl)-2-hydroxy-3-oxopropoxy)propan-2-yl)amino)-4-(trifluoromethyl)pyridazin-3(2H)-one] | < 100
C[C@@H](COCC(C)(O)C(=O)N1CCN(c2ncc(C(F)(F)F)cn2)CC1)Nc1cn[nH]c(=O)c1C(F)(F)F (stereo partly drawn) [Example 5, 5-(((2S)-1-(2-hydroxy-2-methyl-3-oxo-3-(4-(5-(trifluoromethyl)pyrimidin-2-yl)piperazin-1-yl)propoxy)propan-2-yl)amino)-4-(trifluoromethyl)pyridazin-3(2H)-one] | < 100
C[C@@H](COC[C@@H](O)C(=O)N1CCN(c2cnc(C(F)(F)F)cn2)CC1)Oc1cn[nH]c(=O)c1C(F)(F)F [Example 8A, 5-(((S)-1-((R)-2-hydroxy-3-oxo-3-(4-(5-(trifluoromethyl)pyrazin-2-yl)piperazin-1-yl)propoxy)propan-2-yl)oxy)-4-(trifluoromethyl)pyridazin-3(2H)-one] | < 100
C[C@@H](COC[C@H](O)C(=O)N1CCN(c2cnc(C(F)(F)F)cn2)CC1)Oc1cn[nH]c(=O)c1C(F)(F)F [Example 8B, 5-(((S)-1-((S)-2-hydroxy-3-oxo-3-(4-(5-(trifluoromethyl)pyrazin-2-yl)piperazin-1-yl)propoxy)propan-2-yl)oxy)-4-(trifluoromethyl)pyridazin-3(2H)-one] | < 100
C[C@@H](COC[C@@H](O)C(=O)N1CCN(c2ncc(Cl)cn2)CC1)Oc1cn[nH]c(=O)c1C(F)(F)F [Example 9A, 5-(((S)-1-((R)-3-(4-(5-chloropyrimidin-2-yl)piperazin-1-yl)-2-hydroxy-3-oxopropoxy)propan-2-yl)oxy)-4-(trifluoromethyl)pyridazin-3(2H)-one] | < 100
C[C@@H](COC[C@@H](O)C(=O)N1CCN(c2ccc(C#N)cn2)CC1)Oc1cn[nH]c(=O)c1C(F)(F)F [Example 10A, 6-(4-((R)-2-hydroxy-3-((S)-2-((6-oxo-5-(trifluoromethyl)-1,6-dihydropyridazin-4-yl)oxy)propoxy)propanoyl)piperazin-1-yl)nicotinonitrile] | < 100
C[C@@H](COC[C@@H](O)C(=O)N1CCN(c2ncc(C(F)F)cn2)CC1)Oc1cn[nH]c(=O)c1C(F)(F)F [Example 11A, 5-(((S)-1-((R)-3-(4-(5-(difluoromethyl)pyrimidin-2-yl)piperazin-1-yl)-2-hydroxy-3-oxopropoxy)propan-2-yl)oxy)-4-(trifluoromethyl)pyridazin-3(2H)-one] | < 100

The remaining lines, values ahead:

IC50 [nM] | Structure (SMILES)
< 100 | C[C@@H](COC[C@@H](O)C(=O)N1CCN(c2ncc(C(F)(F)F)cn2)CC1)Nc1cn[nH]c(=O)c1C(F)(F)F (single isomer, unassigned) [Example 1A]
< 100 | C[C@@H](COC[C@H](O)C(=O)N1CCN(c2ncc(C(F)(F)F)cn2)CC1)Nc1cn[nH]c(=O)c1C(F)(F)F (single isomer, unassigned) [Example 1B]
< 100 | C[C@@H](COC[C@@H](O)C(=O)N1CCN(c2ncc(Cl)cn2)CC1)Nc1cn[nH]c(=O)c1C(F)(F)F (single isomer, unassigned) [Example 6A]
< 100 | C[C@@H](COC[C@H](O)C(=O)N1CCN(c2ncc(Cl)cn2)CC1)Nc1cn[nH]c(=O)c1C(F)(F)F (single isomer, unassigned) [Example 6B]
< 100 | C[C@@H](COC[C@@H](O)C(=O)N1CCN(c2ncc(C(F)(F)F)cn2)CC1)Oc1cn[nH]c(=O)c1C(F)(F)F (single isomer, unassigned) [Example 7A]
< 100 | C[C@@H](COC[C@H](O)C(=O)N1CCN(c2ncc(C(F)(F)F)cn2)CC1)Oc1cn[nH]c(=O)c1C(F)(F)F (single isomer, unassigned) [Example 7B]
< 100 | C[C@@H](COC[C@@H](O)C(=O)N1CCN(c2ncc(C(F)(F)F)cn2)CC1)Oc1cn[nH]c(=O)c1Br (single isomer, unassigned) [Example 12A]
< 100 | C[C@@H](COC[C@H](O)C(=O)N1CCN(c2ncc(C(F)(F)F)cn2)CC1)Oc1cn[nH]c(=O)c1Br (single isomer, unassigned) [Example 12B]
< 100 | [2H]C1([2H])N(C(=O)[C@H](O)COC[C@H](C)Nc2cn[nH]c(=O)c2C(F)(F)F)C([2H])([2H])C([2H])([2H])N(c2ncc(C(F)(F)F)cn2)C1([2H])[2H] (single isomer, unassigned) [Example 13A]
< 100 | [2H]C1([2H])N(C(=O)[C@@H](O)COC[C@H](C)Nc2cn[nH]c(=O)c2C(F)(F)F)C([2H])([2H])C([2H])([2H])N(c2ncc(C(F)(F)F)cn2)C1([2H])[2H] (single isomer, unassigned) [Example 13B]
< 100 | O=C([C@H](O)COC[C@@H]1c2ccccc2CN1c1cn[nH]c(=O)c1C(F)(F)F)N1CCN(c2ncc(C(F)(F)F)cn2)CC1 (single isomer, unassigned) [Example 17A]
< 100 | O=C([C@H](O)COC[C@H]1c2ccccc2CN1c1cn[nH]c(=O)c1C(F)(F)F)N1CCN(c2ncc(C(F)(F)F)cn2)CC1 (single isomer, unassigned) [Example 17B]
< 100 | O=C([C@@H](O)COC[C@@H]1c2ccccc2CN1c1cn[nH]c(=O)c1C(F)(F)F)N1CCN(c2ncc(C(F)(F)F)cn2)CC1 (single isomer, unassigned) [Example 17C]
< 100 | O=C([C@@H](O)COC[C@H]1c2ccccc2CN1c1cn[nH]c(=O)c1C(F)(F)F)N1CCN(c2ncc(C(F)(F)F)cn2)CC1 (single isomer, unassigned) [Example 17D]

Source: US20250074897A1, “PYRIDAZINONES AS PARP7 INHIBITORS” (Ribon Therapeutics, Inc., priority 2019, published 2025)
